On the set-up of series [1]: method as in Justino et al., 2004. Particulars: rats, single oral 10 mg quercetin/200 g body weight, an hour later; ref Justino et al., 2004; cited from earlier work.
On the set-up of series [2]: method as in Xiao et al., 2005. Particulars: rats, radiolabeled quercetin by gavage, free or metabolized; ref Xiao et al., 2005; cited from earlier work.
On the set-up of series [3]: method as in Xiao et al., 2005. The settings on record: ref Xiao et al., 2005, cited from earlier work.
Series [4] can be described thus: Solubility of Que in release medium. Type of series: physicochemical. The settings on record: PBS containing 0.1% (w/v) Tween 80 (pH 7.4).
Details of series [5]: method as in Bi et al., 2019. The settings on record: piperine as a bioenhancer; ref Bi et al., 2019; cited from earlier work.

In brackets after ≈: the same amount, converted by molar mass.

With `O=c1c(O)c(-c2ccc(O)c(O)c2)oc2cc(O)cc(O)c12` [Quercetin, 3,3′,4′,5,7-pentahydroxyflavone], the Quercetin metabolized in series [1] is recorded as 93%. Moreover, in series [2], the Total quercetin absorbed was 20%. The “Solubility in artificial gastric juice” value in series [3] (artificial gastric juice) was 5.5 µg/mL (≈ 18.2 µM). Moreover, the “Solubility in artificial intestinal juice” value in series [3] (artificial intestinal juice) is given as 28.9 µg/mL (≈ 95.6 µM). The Solubility in water result in series [3] (water) is reported as “about 0.09 μg/mL”. This compound returned a solubility in series [4] of 30 µg/mL (≈ 99.3 µM).

Regarding `O=C(/C=C/C=C/c1ccc2c(c1)OCO2)N1CCCCC1` [piperine, Piperine], in series [5], the Bioavailability of silybin is given as 146–181%.

The record behind these values is paper PMC8218931, “Enhancement of oral bioavailability of quercetin by metabolic inhibitory nanosuspensions compared to conventional nanosuspensions” (Drug Delivery, 2021).
